Results published in patent publication US10188633B2, “Identification of small molecules that facilitate therapeutic exon skipping” (The Regents of the University of California, priority 2011, dated 2019).
Values joined by “and” are separate entries in the source; they are usually repeats but may differ in a detail not shown here. Equal values may be shown once. Read-outs that look alike come from different tables or passages of the source.

System: human DMD exon 50 GFP based reporter
Experiment: BioMol high throughput screen in Ex50-GFP reporter C2C12 myoblasts, with or without AON6
Format: cell-based, mouse
Conditions: for Average Fluorescence (n = 3): average of 3 replicate plates
From the text: Small molecule libraries were screened for exon skipping promoting activity in C2C12 myoblasts expressing a human DMD exon 50 GFP based reporter. […] In the reporter cells, successful skipping of DMD exon 50 creates in-frame GFP expression. Number of cells that were fluorescing was quantified using a high content cell imager in 384 well plate format. Fluorescence was normalized by subtracting the average fluorescence value of the carrier (DMSO) controls. Fluorescence readouts are plotted for the BioMol library screen both with (+AO) and without (−AO) from Source Plate 1 (containing the Orphan Ligand, Ion Channel, Enzyme Inhibitor, and Endocannabanoid libraries, n=300). Each point for the DMSO controls, all compounds, and the Top 5% from Source Plate 1 (n=15) represents the average normalized fluorescence of 6 replicates in the −AO screen and 3 replicates in the +AO screen. […] Individual points for dantrolene are plotted with the bold horizontal line indicating the median. The short horizontal lines interspersed among the data points indicate 1, 2, and 3 standard deviations away from the DMSO treatment mean fluorescence.
In contrast to prior screens aimed at identifying small molecules which impact exon skipping, our screen is unique at least because it relies on robust quantitation of a skipping reporter in the context of a muscle lineage cell in the presence and absence of suboptimal AO. These screens were performed using a mouse muscle cell line (C2C12) expressing a human DMD exon 50 GFP based reporter selected to minimize experimental variation and sensitivity in the context of an automated and quantitative fluorescent scanning system.
AO was added prior to small molecule incubation in an effort to identify molecules that facilitate AO skipping rather than AO delivery. The fluorescence induced by each compound was normalized to a vehicle controls per plate to correct for plate to plate variability. Fluorescence was averaged across replicate plates (n=6 without AO screen, n=3 with AO screen). Compounds were rank ordered based on average intensity of fluorescence and difference between the without AO and with AO screen (FIG. 1 and Table 2).
A stable clone was generated from C2C12 cells transfected with a human exon 50 DMD GFP reporter (ex50GFP) that has been previously described. Ex50GFP reporter myoblasts were seeded into uncoated 384 well plates and were incubated for 4 hours either with or without 300 nM of 2′-O-methyl phosphorothioate AON6 [5′[…] 3′ (SEQ ID NO:1)] targeting the human exon 50 splice donor site. Cells were transfected with AON6 using the FUGENE (Roche) transfection reagent per manufacturer's instructions. Following AON6 incubation, each component of the BioMol library (n=503) was screened at 10 uM concentration with a final concentration of the DMSO carrier being 1%. Forty-eight hours later fluorescence was measured using the MicroXpress high content imager and analyzed using MetaXpress. Immediately preceding imaging, DNA was stained with Hoescht for 30 min. The BioMol screen without AO (−AO) was performed in 6 replicates, and the with AO (+AO) screen was performed in 3 replicates. For the screen analysis raw fluorescence values were normalized to carrier controls present on each plate by subtracting the values. Negative fluorescence values were set to 0. The data from each compound were averaged from all replicates. For secondary screening by 12 or 16 point dose response, Ex50GFP myoblasts or C2C12 cells without the reporter were seeded on uncoated 384 well plates. A sub-optimal dose of AON6 targeting DMD exon 50 was added for 4 hours.

[1] = With AON6 screen, compound 10 uM, 48 h, fluorescence normalized by subtracting DMSO carrier controls
[2] = With AON6 screen, compound 10 uM, 48 h, normalized to DMSO carrier controls
[3] = With AON6 screen, compound 10 uM
[4] = Without AON6 screen, compound 10 uM, 48 h, normalized to DMSO carrier controls
[5] = Without AON6 screen, compound 10 uM, average of 6 replicate plates

| Molecule | Fluorescence Plate 1 [1] | Fluorescence Plate 2 [2] | Fluorescence Plate 3 [2] | Average Fluorescence (n = 3) [3] | Fluorescence Plate 1 [4] | Fluorescence Plate 2 [4] | Fluorescence Plate 3 [4] | Fluorescence Plate 4 [4] | Fluorescence Plate 5 [4] | Fluorescence Plate 6 [4] | Average Fluorescence (n = 6) [5] | also measured |
| --- | --- | --- | --- | --- | --- | --- | --- | --- | --- | --- | --- | --- |
| N#C/C(=C\c1ccc(O)c(O)c1)C(=O)Nc1ccccc1 [AG-494] | 19.38 | 25.36 | 25.25 | 23.33 | 5.92 | 1.23 | 1.65 | 7.58 | 3.54 | 5.26 | 4.20 |  |
| CCCCCCCC/C=C\CCCCCCCC(=O)NCCc1ccc(O)c(O)c1 [Oleoyl dopamine] |  |  |  |  | 2.78 | 1.51 | 12.34 | 3.21 | 3.30 | 1.32 | 4.08 |  |
| CC(n1cc(C[C@H](N)C(=O)O)c2ccccc21)n1cc(C[C@H](N)C(=O)O)c2ccccc21 | 20.72 | 11.15 | 22.18 | 18.02 |  |  |  |  |  |  |  |  |
| CCCCC/C=C\C/C=C\C/C=C\C/C=C\CCCCCC(=O)NCCc1ccc(O)c(O)c1 [Docosatetra-7Z,10Z,13Z,16Z-enoyl dopamine] |  |  |  |  |  |  |  |  |  |  |  | Average Fluorescence (n = 6): 4.71; Fluorescence Plate 1: −1.65; Fluorescence Plate 2: 5.21; Fluorescence Plate 3: 7.47; Fluorescence Plate 4: 2.30; Fluorescence Plate 5: 9.50; Fluorescence Plate 6: 5.44 |
| COC(=O)C1=C(C)NC(C)=C(C(=O)OCCCN2CCC(c3ccccc3)(c3ccccc3)CC2)[C@H]1c1cccc([N+](=O)[O-])c1 [NIGULDIPINE] |  |  |  |  |  |  |  |  |  |  |  | Average Fluorescence (n = 6): 4.12; Fluorescence Plate 1: 5.07; Fluorescence Plate 2: 1.34; Fluorescence Plate 3: 3.34; Fluorescence Plate 4: 8.06; Fluorescence Plate 5: 6.06; Fluorescence Plate 6: 0.84 |
| COc1ccc2cc1Oc1ccc(cc1)C[C@H]1c3cc(c(OC)cc3CCN1C)Oc1c(OC)c(OC)cc3c1[C@H](C2)N(C)CC3 [TETRANDRINE] |  |  |  |  | 3.15 | 2.41 | 5.39 | 4.64 | 5.03 | 6.64 | 4.54 |  |
| COC[C@H]1OC(=O)c2coc3c2[C@@]1(C)C1=C(C3=O)[C@@H]2CCC(=O)[C@@]2(C)C[C@H]1OC(C)=O [WORTMANNIN] |  |  |  |  | 4.99 | 3.07 | 4.23 | 5.92 | 6.44 | 3.78 | 4.74 |  |
| O=Cc1c2c(cc3c1=Nc1ccccc1-3)=Nc1ccccc1-2 [6-FORMYLINDOLO [3,2-b] CARBAZOLE] | 30.05 | 30.08 | 32.59 | 30.90 |  |  |  |  |  |  |  |  |
| Nc1ncnc2c1c(I)cn2[C@@H]1O[C@H](CO)C(O)C1O (some centres unmarked) [5-IODOTUBERCIDIN] |  |  |  |  | -0.41 | 6.65 | 9.13 | 18.27 | 30.70 | 6.10 | 11.74 |  |
| N#CC(=C(N)Sc1ccccc1N)C(C#N)=C(N)Sc1ccccc1N [U-0126] | 17.87 | 35.65 | 16.65 | 23.39 |  |  |  |  |  |  |  |  |
| C[C@@]12C(=O)OC(=O)[C@]1(C)[C@H]1CC[C@@H]2O1 [CANTHARIDIN] |  |  |  |  | 11.40 | −1.04 | 0.63 | 5.55 | 4.34 | 4.45 | 4.22 |  |
| N#C/C(=C/c1ccc(O)c(O)c1)C(=O)NCc1ccccc1 [AG-490] | 7.17 | 30.27 | 13.54 | 16.99 |  |  |  |  |  |  |  |  |
| INDIRUBIN |  |  |  |  |  |  | 6.43 and 6.44 |  | 3.42 and 6.60 |  | 17.88 and 8.26 |  |
| NCCNS(=O)(=O)c1cccc2cnccc12 [H-9] | 18.09 | 19.17 | 13.25 | 16.84 |  |  |  |  |  |  |  |  |
| CC(N/C(=N\C#N)Nc1ccncc1)C(C)(C)C (centres unmarked) | 15.64 | 27.20 | 11.56 | 18.13 |  |  |  |  |  |  |  |  |
| COc1cc(/C=C(\C#N)C(N)=O)cc(CSc2nc3ccccc3s2)c1O [AG-825] | 17.24 | 23.38 | 11.53 | 17.38 |  |  |  |  |  |  |  |  |
| CC(C)(C)c1cc(/C=C(\C#N)C(N)=S)cc(C(C)(C)C)c1O [AG-879] |  |  |  |  | 1.23 | 3.24 | 3.46 | 6.94 | 8.93 | 2.06 | 4.31 |  |
| N#C/C(=C\c1ccc(O)c(O)c1)C(N)=O [TYRPHOSTIN 46] | 8.61 | 30.70 | 14.09 | 17.80 |  |  |  |  |  |  |  |  |
| N=C(NCc1ccc(Cl)c(Cl)c1)NC(=O)c1nc(Cl)c(N)nc1N [DICHLOROBENZAMIL] |  |  |  |  | 22.19 | 15.01 | 13.67 | 4.78 | 7.44 | 6.66 | 11.63 |  |
| CCN(CC)CCNC(=O)c1ccc(N)cc1 [PROCAINAMIDE] | 13.80 | 19.66 | 20.81 | 18.09 |  |  |  |  |  |  |  |  |
| Cn1cc(C2=C(c3cn(CCCSC(=N)N)c4ccccc34)C(=O)NC2=O)c2ccccc21 [Ro 31-8220] |  |  |  |  | 17.56 | 50.61 | 46.79 | 38.49 | 31.21 | 34.94 | 36.60 |  |
| COc1ccc2c3c([nH]c2c1)C(C)=NCC3.Cl [HARMALINE HCl] | 15.00 | 42.55 | 0.22 | 19.26 | 31.97 | 27.56 | 27.06 | 22.50 | 16.09 | 19.75 | 24.15 |  |
